Data from patent publication US8796268B2, “Heteroaryls and uses thereof” (Millennium Pharmaceuticals, Inc., priority 2010, dated 2014).

What was measured:
Assay type in all cases: biochemical
Human PI3K alpha = molecular target: T1, Human PI3K alpha (Homo sapiens, UniProt P42336); experiment: Human PI3K alpha enzyme assay (HTRF); details: at a 1.1 μM concentration; read-out: PI3Kα Percent Inhibition
T1 construct: His (N); host or cells: SF9 insect cells (baculovirus)

Human PI3K beta = molecular target: T2, Human PI3K beta (Homo sapiens, UniProt P42338); experiment: Human PI3K beta enzyme assay (HTRF); details: at a 1.1 μM concentration; read-out: PI3β Percent Inhibition
T2 construct: His (N); host or cells: SF9 insect cells (baculovirus)
T2 sequence (P42338 whole entry): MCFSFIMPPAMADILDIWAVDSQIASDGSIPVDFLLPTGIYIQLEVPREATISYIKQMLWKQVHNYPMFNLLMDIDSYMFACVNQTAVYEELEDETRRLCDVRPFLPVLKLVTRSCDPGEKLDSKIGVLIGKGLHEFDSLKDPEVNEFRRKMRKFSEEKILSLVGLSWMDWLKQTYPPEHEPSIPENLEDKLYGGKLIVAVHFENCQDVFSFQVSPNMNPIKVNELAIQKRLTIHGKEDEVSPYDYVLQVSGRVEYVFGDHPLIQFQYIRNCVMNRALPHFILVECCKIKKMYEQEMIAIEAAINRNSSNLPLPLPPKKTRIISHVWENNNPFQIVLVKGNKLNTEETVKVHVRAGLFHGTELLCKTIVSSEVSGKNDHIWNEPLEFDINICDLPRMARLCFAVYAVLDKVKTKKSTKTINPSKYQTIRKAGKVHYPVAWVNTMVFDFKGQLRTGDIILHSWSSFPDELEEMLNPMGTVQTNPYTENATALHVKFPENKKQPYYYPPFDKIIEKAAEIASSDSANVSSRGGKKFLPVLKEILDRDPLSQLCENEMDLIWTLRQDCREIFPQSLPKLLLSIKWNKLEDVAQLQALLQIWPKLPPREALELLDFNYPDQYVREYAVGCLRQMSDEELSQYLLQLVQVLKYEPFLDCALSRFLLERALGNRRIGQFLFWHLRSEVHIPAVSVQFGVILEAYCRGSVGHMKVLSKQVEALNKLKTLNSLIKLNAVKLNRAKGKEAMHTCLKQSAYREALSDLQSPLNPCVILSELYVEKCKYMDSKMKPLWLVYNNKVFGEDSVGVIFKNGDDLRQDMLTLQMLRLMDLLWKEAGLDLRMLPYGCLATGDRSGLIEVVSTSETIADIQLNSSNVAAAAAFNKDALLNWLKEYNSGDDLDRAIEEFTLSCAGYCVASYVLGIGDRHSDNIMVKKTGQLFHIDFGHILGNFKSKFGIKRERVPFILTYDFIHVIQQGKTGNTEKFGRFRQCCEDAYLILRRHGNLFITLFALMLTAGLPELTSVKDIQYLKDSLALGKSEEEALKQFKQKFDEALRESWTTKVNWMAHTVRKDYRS
T2 sequence (P27986 whole entry partner): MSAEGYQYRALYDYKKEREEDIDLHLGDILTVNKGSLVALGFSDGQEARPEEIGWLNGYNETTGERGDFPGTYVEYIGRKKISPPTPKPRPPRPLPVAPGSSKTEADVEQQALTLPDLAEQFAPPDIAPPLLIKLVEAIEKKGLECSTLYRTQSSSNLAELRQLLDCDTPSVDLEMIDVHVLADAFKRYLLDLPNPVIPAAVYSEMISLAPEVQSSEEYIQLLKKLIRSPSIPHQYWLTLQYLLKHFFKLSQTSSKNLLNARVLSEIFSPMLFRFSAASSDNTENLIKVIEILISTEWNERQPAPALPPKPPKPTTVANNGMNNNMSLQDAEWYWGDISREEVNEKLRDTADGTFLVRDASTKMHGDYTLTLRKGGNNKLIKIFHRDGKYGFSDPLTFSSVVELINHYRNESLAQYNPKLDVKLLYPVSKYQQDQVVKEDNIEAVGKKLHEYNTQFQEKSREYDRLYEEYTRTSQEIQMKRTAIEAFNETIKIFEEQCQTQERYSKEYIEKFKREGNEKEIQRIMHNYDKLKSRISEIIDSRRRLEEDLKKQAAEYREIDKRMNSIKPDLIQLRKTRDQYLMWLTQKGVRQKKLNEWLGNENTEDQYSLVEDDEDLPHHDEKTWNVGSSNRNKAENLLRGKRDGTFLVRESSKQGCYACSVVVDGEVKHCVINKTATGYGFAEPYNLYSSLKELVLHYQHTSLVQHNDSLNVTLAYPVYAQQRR
Method in brief: (§1)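 Compounds were mixed with 25 uM ATP, then with 3.5 uM di-C8 PI(4,5)P2 and His-tagged PI3K isoform (β 5.25 nM, δ 0.75 nM, γ 5 nM) at pH 7.00. After 30 min at room temperature, EDTA stopped the reaction and PIP3 was measured by HTRF over 1 h.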

Human PI3K delta = molecular target: T3, Human PI3K delta (Homo sapiens, UniProt O00329); experiment: Human PI3K delta enzyme assay (HTRF); details: at a 1.0 μM concentration; read-out: PI3Kδ Percent Inhibition
T3 construct: His (N); host or cells: SF9 insect cells (baculovirus)
T3 sequence (O00329 whole entry): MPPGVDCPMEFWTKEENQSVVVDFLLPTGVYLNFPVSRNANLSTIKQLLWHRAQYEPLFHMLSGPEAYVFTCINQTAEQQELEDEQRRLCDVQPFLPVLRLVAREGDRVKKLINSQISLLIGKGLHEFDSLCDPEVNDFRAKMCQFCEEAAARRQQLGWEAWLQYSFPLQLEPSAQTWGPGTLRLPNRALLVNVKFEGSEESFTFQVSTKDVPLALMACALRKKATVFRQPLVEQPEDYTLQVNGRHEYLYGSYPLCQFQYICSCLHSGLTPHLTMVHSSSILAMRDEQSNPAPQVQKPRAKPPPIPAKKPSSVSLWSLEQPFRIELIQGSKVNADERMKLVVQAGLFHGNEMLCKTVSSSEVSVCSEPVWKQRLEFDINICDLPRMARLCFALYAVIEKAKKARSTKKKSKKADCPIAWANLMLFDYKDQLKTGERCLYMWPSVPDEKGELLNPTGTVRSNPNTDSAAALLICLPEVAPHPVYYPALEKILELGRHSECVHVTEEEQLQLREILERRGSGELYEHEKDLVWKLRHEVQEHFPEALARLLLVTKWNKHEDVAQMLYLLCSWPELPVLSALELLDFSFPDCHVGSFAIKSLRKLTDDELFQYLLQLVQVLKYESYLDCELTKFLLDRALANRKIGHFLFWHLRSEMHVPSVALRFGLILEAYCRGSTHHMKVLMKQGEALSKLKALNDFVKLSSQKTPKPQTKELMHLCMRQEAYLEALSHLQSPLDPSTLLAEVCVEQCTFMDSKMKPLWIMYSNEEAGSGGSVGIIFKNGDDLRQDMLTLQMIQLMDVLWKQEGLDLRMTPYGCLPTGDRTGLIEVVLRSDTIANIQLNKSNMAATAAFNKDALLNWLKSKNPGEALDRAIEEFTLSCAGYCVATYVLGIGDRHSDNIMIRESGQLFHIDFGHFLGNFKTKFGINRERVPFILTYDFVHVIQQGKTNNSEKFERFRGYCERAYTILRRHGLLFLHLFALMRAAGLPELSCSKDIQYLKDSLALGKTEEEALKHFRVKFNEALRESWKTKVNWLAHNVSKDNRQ
T3 sequence (P27986 whole entry partner): as the sequence (P27986 whole entry partner) above
Method in brief: as §1

Human PI3K gamma = molecular target: T4, Human PI3K gamma (Homo sapiens, UniProt P48736); experiment: Human PI3K gamma enzyme assay (HTRF); details: at a 1.0 μM concentration; read-out: PI3Kγ Percent Inhibition
T4 construct: His (N); host or cells: SF9 insect cells (baculovirus)
T4 sequence (P48736 whole entry): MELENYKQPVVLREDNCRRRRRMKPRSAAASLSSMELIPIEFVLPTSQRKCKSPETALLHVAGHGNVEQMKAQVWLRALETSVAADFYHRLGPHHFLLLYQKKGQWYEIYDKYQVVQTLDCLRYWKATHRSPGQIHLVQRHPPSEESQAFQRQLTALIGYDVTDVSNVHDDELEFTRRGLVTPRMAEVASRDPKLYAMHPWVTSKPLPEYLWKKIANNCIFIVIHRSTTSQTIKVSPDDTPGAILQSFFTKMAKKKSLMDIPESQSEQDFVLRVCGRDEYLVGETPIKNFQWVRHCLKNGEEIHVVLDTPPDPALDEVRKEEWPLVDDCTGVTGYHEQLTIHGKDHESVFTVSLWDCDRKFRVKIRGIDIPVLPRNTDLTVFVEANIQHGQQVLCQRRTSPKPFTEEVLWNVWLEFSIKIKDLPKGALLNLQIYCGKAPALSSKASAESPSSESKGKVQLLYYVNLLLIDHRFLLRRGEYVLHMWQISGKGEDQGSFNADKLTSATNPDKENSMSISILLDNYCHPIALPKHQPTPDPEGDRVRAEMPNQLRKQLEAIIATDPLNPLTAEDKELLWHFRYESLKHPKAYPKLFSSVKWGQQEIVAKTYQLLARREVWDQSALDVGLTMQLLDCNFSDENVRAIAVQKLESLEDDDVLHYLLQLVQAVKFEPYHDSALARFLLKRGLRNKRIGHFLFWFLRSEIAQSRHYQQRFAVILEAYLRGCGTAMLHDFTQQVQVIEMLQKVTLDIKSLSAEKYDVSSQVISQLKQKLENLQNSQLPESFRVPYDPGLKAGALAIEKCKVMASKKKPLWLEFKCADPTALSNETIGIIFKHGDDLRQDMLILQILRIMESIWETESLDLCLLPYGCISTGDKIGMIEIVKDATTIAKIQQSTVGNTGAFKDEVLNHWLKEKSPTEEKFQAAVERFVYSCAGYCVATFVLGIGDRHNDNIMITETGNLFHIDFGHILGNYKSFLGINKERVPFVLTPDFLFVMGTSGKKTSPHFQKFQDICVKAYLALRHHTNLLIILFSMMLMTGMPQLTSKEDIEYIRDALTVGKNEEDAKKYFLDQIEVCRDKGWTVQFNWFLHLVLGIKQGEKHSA
Method in brief: as §1

Human VPS34 = molecular target: T5, Human VPS34 (Homo sapiens, UniProt Q8NEB9); experiment: Human VPS34 enzyme assay (Adapta Universal Kinase Assay); details: at a 1.0 μM concentration; read-out: VPS34 Percent Inhibition
T5 construct: GST (with thrombin site, pDEST20-Thrombin) (N); host or cells: SF9 insect cells (baculovirus)
Excerpt: The catalytic subunits of PI3Ks are cloned into either pDEST8(p110 alpha) or pDEST10(p110beta, p110delta, and p110gamma) as N-terminal His tagged fusion proteins using the Gateway system (Invitrogen, catalog#11804-010 for pDEST8 and 11806-015 for pDEST10). The sequences are verified before recombinant protein expression using the Baculovirus Expression System with Gateway® Technology. The accession numbers for the subunits are as follows: • p110 alpha (GB:U79143) • p110beta (GB: S67334) • p110delta (GB: U86453) • p110gamma (GB: X83368) • The regulatory subunits of PI3Ks are cloned into pDEST8 as un-tagged protein using the Gateway system (Catalog#11804-010). The sequences are verified before recombinant protein expression using the Baculovirus Expression System with Gateway® Technology. The accession numbers for the subunits are as following: • p85 alpha (GB: BC030815) • p101(GB: AB028925) • VPS34 (accession number GB:BC033004) is cloned into pDEST20—Thombin as N-terminal GST tagged fusion proteins using the Gateway system (Invitrogen, catalog#11804-013). The sequences are verified before recombinant protein expression using the Baculovirus Expression System with Gateway® Technology.
For expression VPS34 was infected at 1MOI in SF9 cells and harvested 72 hours post infection.
For purification, VPS34 is purified by Glutathione Sepharose 4 Fast Flow (GE Healthcare #17-5132-03) followed by HiTrap Q (GE Healthcare #17-1153-01).
3) VPS34 is assayed using Adapta™ Universal Kinase Assay Kit (Invitrogen).
4) Human VPS34 enzyme assay method
100 nL compounds in DMSO are added to wells of a 384 well microtitre plate (Greiner 780076). At room temperature: 5 ul VPS34 reaction buffer (Invitrogen Assay Buffer Q (diluted 1 in 5 with nanopure water) plus 2 mM DTT and 2 mM MnCl2) containing ATP (20 uM, Promega) and 200 uM PI—PS substrate (Invitrogen PV5122) is added followed immediately by 5 ul VPS34 reaction buffer (as above) containing VPS34 (5 nM, Millennium Protein Sciences Group) and the mixture is incubated with shaking at room temperature for 1 hour. Then 5 ul VPS34 stop-detect mix (as per Invitrogen Adapta Assay kit (PV5009) instructions (contains kinase quench buffer, TR-FRET buffer, Adapta Eu anti-ADP antibody and Alexa Fluor 647 ADP tracer)) is added to quench the reaction. The plates are then incubated for 30 minutes at room temperature with shaking and then read on a BMG PheraStar Plus reader.
For the assay methods described above, test compound percent inhibition, at various concentrations, is calculated relative to control (DMSO and EDTA) treated samples. Compound concentration versus percent inhibition curves are fitted to generate IC50 values. One skilled in the art will appreciate that the values generated either as percentage inhibition at a single concentration or IC50 values are subject to experimental variation.

T1 sequence (P42336 whole entry): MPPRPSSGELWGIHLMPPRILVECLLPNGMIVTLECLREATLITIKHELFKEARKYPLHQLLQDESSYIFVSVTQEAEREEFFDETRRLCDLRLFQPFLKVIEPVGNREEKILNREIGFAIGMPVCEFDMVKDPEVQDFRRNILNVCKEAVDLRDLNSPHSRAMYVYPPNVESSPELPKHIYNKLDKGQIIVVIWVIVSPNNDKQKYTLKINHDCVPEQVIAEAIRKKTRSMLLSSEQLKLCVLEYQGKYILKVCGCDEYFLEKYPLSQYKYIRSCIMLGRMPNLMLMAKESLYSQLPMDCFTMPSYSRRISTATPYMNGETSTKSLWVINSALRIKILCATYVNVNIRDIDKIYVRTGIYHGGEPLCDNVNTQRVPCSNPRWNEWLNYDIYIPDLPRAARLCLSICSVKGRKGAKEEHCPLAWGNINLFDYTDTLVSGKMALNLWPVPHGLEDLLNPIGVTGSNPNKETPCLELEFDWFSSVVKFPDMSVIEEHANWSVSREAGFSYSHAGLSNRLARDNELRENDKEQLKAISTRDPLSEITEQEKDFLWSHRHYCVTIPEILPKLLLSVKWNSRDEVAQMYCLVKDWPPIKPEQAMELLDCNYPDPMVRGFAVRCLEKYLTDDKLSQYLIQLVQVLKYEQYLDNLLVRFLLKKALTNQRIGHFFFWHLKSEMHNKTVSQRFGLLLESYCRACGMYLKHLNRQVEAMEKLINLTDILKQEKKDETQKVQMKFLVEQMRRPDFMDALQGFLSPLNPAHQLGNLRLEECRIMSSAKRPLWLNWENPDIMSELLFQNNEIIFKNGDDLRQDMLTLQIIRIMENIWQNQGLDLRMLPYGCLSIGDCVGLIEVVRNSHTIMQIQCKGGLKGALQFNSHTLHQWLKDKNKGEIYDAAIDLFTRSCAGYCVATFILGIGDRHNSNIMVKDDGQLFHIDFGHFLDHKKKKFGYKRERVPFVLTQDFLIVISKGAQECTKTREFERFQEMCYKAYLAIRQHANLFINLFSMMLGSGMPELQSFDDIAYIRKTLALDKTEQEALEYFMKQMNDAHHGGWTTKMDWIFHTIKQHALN
T1 sequence (P27986 whole entry partner): as the sequence (P27986 whole entry partner) above

O=C(O)c1sc(N2CCOCC2)nc1Cc1ccc2cc(F)ccc2c1 [Compound 128]
inhibition at 1.1 µM (Human PI3K alpha): 46% | inhibition at 1.1 µM (Human PI3K beta): 106% | inhibition at 1 µM (Human PI3K delta): 114% | inhibition at 1 µM (Human PI3K gamma): 63.4% | inhibition at 1 µM (Human VPS34): 88.1%
